This passage reports TGI results from PubChem BioAssay (NCI).

Assay in all cases: growth of human tumour cells (NCI), 48 h
In assay [1] the test system is HOP-92 NSCLC.
The subject of assay [2] is TK-10 renal.
Assay [3] relates to A549 NSCLC.
In assay [4] the test system is HOP-62 NSCLC.
Assay [5] deals with MOLT-4 leukemia.
Assay [6] relates to OVCAR-8 ovarian.
Assay [7] has as its system NCI-H522 lung.
For assay [8], the system named is HL-60(TB) leukemia.
In assay [9] the test system is SW-620 colon.
The subject of assay [10] is A498 renal.
The subject of assay [11] is NCI-H460 lung.
Assay [12] has as its system SF-268 CNS.
In assay [13] the test system is HT29 colon.
Assay [14] concerns COLO 205 colon.

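Values below derive from 48-hour exposures of cells grown in 96-well plates, with endpoints linearly interpolated between the two concentrations bracketing the appropriate inhibition level. TGI: total growth inhibition.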

Turning to `N#CCC(=O)Nc1ccccc1O`, the TGI in assay [1], in [2], in assay [3], in assay [4], in assay [5] and in assay [6] was more than 100 µM in each case. Besides, the TGI in assay [7], in assay [8], in assay [9], in assay [10], in [11] and in assay [12] was more than 100 µM in each case. Besides, the TGI in assay [13] and in [14] was more than 100 µM throughout.
Turning to `O=C1C2C3C=C4c5ccccc5N(c5ccccc5)C4([C@@H]2C(=O)N1c1ccc(F)cc1)[C@H]1C(=O)N(c2ccc(F)cc2)C(=O)[C@@H]31` (stereo partly specified), the TGI in assay [1], in assay [2], in assay [3], in [5], in assay [6] and in [7] was more than 100 µM in each case. The TGI in assay [8], in [9], in assay [12] and in assay [14] was more than 100 µM throughout.
Take `COc1cc2c(cc1OC)[C@H]1C(COC(=O)Nc3ccccc3)CN1CC2` (stereo partly specified): the TGI in [1], in assay [2], in assay [3], in [4], in [5] and in assay [6] was more than 100 µM throughout. Also, the TGI in [7], in [8], in assay [9], in assay [10], in assay [11] and in assay [12] was more than 100 µM in each case. Besides, the TGI in assay [13] and in assay [14] was more than 100 µM in each case.
Regarding `COc1ccc(/C=C/c2nc(=S)[nH][nH]2)cc1OC`, the TGI in assay [1], in [2], in assay [3], in [5], in assay [6] and in assay [8] was more than 100 µM in each case. The TGI in assay [9], in assay [10], in assay [11], in assay [12] and in assay [13] was more than 100 µM throughout.
Take `CC1OC(CC2C=CCc3c(O)c4c(c(O)c32)C(=O)c2ccccc2C4=O)CC(NC(=O)C(F)(F)F)C1O` (stereo unspecified): the TGI in assay [1] is 8.39 µM; in assay [2], 10.9 µM; in [4], 19 µM; in [5] it was 22.5 µM; in assay [6] it was 15 µM; in assay [7] it was 44.9 µM. Besides, the TGI in assay [8] is 26.7 µM; in assay [9] it was 81.5 µM; in assay [10] it was 16.5 µM; in assay [11], 24.1 µM; in assay [12] it was 22.2 µM; in assay [13], 40.5 µM. In [14], this compound displayed a TGI of 53.4 µM.
Turning to `CN1C(=O)N(c2nc3ccccc3[nH]2)C(C)(C)C1=O`, the TGI in assay [3], in assay [4], in assay [5], in assay [6], in assay [7] and in assay [8] was more than 100 µM in each case. The TGI in assay [9], in [10], in assay [12], in assay [13] and in [14] was more than 100 µM each time.
As for `CCC(=O)CCC1=Nc2nnc(CCCCc3nnc4n3C(=O)C(CCC(=O)CC)=N4)n2C1=O`, the TGI in [1], in assay [2], in assay [3], in [4], in [5] and in assay [6] was more than 100 µM each time. Also, the TGI in assay [7], in assay [8], in [9], in [10], in assay [11] and in assay [12] was more than 100 µM throughout. The TGI in assay [13] and in [14] was more than 100 µM each time.
In the case of `C/C(=N/N)c1sc(-c2nc(C)c(/C(C)=N\N)s2)nc1C`, the TGI was more than 100 µM in [1]; more than 100 µM in assay [2]; more than 100 µM in assay [3]; more than 100 µM in assay [4]; 83.3 µM in [5]; more than 100 µM in [6]. In addition, the TGI was more than 100 µM in assay [7]; more than 69.3 µM in assay [8]; more than 100 µM in assay [9]; more than 100 µM in assay [10]; more than 100 µM in [11]; more than 100 µM in assay [12]. Further, the TGI in assay [13] was more than 100 µM; in assay [14] it was more than 68.9 µM.
For `CCc1cccc(NC(=O)c2cc(/C=C/c3ccccc3)[nH]c(=S)n2)c1`, the TGI in [1], in assay [2], in assay [3], in assay [4], in assay [5] and in [6] was more than 100 µM throughout. The TGI in assay [7], in assay [8], in [9], in [10], in assay [11] and in assay [12] was more than 100 µM in each case. Also, the TGI in assay [13] and in [14] was more than 100 µM throughout.
Take `COC(=O)C(C#N)C1NC(=O)c2ccccc21` (stereo unspecified): the TGI in [1], in [2], in [3], in assay [4], in assay [5] and in assay [6] was more than 100 µM throughout. In addition, the TGI in assay [7], in [8], in assay [9], in assay [10], in assay [11] and in assay [12] was more than 100 µM in each case. Moreover, the TGI in assay [13] and in [14] was more than 100 µM throughout.
For `O=C(O)CCSC(=O)Nc1ccccc1`, the TGI in assay [2], in [3], in assay [4], in assay [5], in assay [6] and in assay [8] was more than 100 µM in each case. Besides, the TGI in assay [9], in assay [10], in assay [11], in assay [12], in [13] and in assay [14] was more than 100 µM in each case.
